# Values quoted from earlier work as cited in paper PMC12812009, “Optimization of 4‐Amino‐2‐Pyridone Inhibitors of Proprotein Convertase Subtilisin/Kexin Type 9: Integrating Structure–Activity and Structure–Metabolism Relationships” (Chemmedchem, 2025).
# Tested on: secreted PCSK9
# Design: method as in PMID 38160616
# Details: 5 µM; cited from earlier work
compound,measurement,value
Cc1cc(NCc2ccc(C(F)(F)F)cc2)cc(=O)n1Cc1ccc(C(F)(F)F)cc1 [Compound 5c],PCSK9 secretion from HepG2 cells (in words),effectively reduced PCSK9 secretion
